Reference: patent publication US20240261414A1, “FATTY ACID AMIDE HYDROLASE (FAAH) CLEAVABLE PRODRUGS OF BRAIN TARGETING ACTIVES AND COMBINATION WITH PERIPHERALLY RESTRICTED FAAH INHIBITORS” (Autobahn Therapeutics, Inc., priority 2021, published 2024)

The molecules below were run against T1, recombinant human FAAH (rhFAAH) (Homo sapiens, UniProt O00519) (assay: FAAH substrate evaluation (acid metabolite formation)). Conditions: 0.5 ng/L rhFAAH, 1 μM test compound, Tris-EDTA buffer pH 8.0, room temperature, 0-60 minutes.
T1 construct: purchased Cayman Chemical (Ann Arbor, MI, USA)
T1 sequence (O00519 1-579): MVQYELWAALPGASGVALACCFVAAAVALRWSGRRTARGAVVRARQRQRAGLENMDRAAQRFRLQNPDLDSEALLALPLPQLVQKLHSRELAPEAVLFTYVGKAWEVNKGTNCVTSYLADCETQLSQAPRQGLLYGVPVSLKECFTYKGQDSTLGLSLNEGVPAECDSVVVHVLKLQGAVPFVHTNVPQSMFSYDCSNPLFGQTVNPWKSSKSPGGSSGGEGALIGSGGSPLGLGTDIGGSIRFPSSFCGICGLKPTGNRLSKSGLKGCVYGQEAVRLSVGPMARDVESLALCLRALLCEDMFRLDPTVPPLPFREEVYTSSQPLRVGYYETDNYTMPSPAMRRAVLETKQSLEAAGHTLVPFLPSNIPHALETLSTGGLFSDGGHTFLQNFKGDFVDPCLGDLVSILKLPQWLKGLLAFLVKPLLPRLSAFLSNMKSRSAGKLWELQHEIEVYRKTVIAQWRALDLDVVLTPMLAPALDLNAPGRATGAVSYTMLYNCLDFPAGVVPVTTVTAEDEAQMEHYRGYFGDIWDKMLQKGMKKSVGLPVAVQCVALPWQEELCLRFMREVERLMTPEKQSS
Format: biochemical
Method: Purified recombinant human FAAH (rhFAAH) was purchased from Cayman Chemical (Ann Arbor, MI, USA). The total volume for each incubation was 400 μL containing a final 0.5 ng/L rhFAAH, 1 μM test compound, 1.25% ethanol or 1 μM PF-3845 (FAAH inhibitor), and 0.1% bovine serum albumin in Tris-EDTA buffer at pH 8.0). The positive control was LL-341001. The incubation was conducted at the room temperature. At 0, 5, 15, 30 and 60 minutes, an aliquot of 30 μL reaction mixtures was removed and mixed with 300 μL acetonitrile containing 5 ng/mL terfenadine and 10 ng/mL tolbutamide as internal standards to quench the reaction. The resulting mixture was centrifuged at 4000 rpm, 4° C. for 15 minutes, and 100 μL supernatant was ready for LC-MS/MS analysis to measure the formation of acid metabolite.
Acquity Ultra Performance LC system from Waters was used for sample analysis. The chromatography was performed on a reverse phase Kinetex 2.6 μm C18 column, 2.1×30 mm, 100 Å. The mobile phase A comprised of 0.1% formic acid in water and mobile phase B comprised of 0.1% formic acid in acetonitrile with a 2-min run time at the flow rate of 0.8 mL/min for the acid metabolite from positive control or a 1.5 min run time at the flow rate of 0.9 mL/min for the acid metabolite of test compounds. The mass spectrometer (API-5500 and API Q Trap 4000 Applied Biosystems/MDS SCIEX Instruments, Framingham, MA, USA) was operated under ESI positive or negative ion MRM mode.
The formation of acid metabolite was monitored and quantified using one calibration point of 1 μM. The observed rate constant (ke) for the acid metabolite formation was calculated by plotting the metabolite concentration versus time of incubation with the slope being ke and is shown in Table 2.
In the case of `Cc1noc(-c2ccc(CSCCC(=O)Nc3cccnn3)cc2)c1NC(=O)O[C@H](C)c1ccccc1Cl` [Compound 41], the “ke (observed rate constant for the acid metabolite formation)” value (“ke” for short) is reported as “B (ke is less than 1.0 and more than or equal to 0.1)”. `CCCCC[C@H](O)CC[C@@H]1[C@H]2Cc3cccc(OCC(N)=O)c3C[C@H]2C[C@H]1O` [Compound 14] was tested, and the “ke” value was “B (ke is less than 1.0 and more than or equal to 0.1)”. With `CCc1cc(/C(C)=N/OCc2ccc(C3CCCCC3)c(C(F)(F)F)c2)ccc1CN1CC(C(=O)NCCO)C1` [Compound 17] the “ke” value was “A (ke is more than or equal to 1.0)”. With `Cc1c(C=CC(N)=O)ccc(OCc2cc(Cl)cc3c2OC(C)(C)C3)c1C` [Compound 9, 3-(4-((5-chloro-2,2-dimethyl-2,3-dihydrobenzofuran-7-yl)methoxy)-2,3-dimethylphenyl)propenamide] the “ke” value was “A (ke is more than or equal to 1.0)”. `CCCCC[C@H](O)CC[C@@H]1[C@H]2Cc3cccc(OCC(=O)Nc4cccnn4)c3C[C@H]2C[C@H]1O` [Compound 53] was tested, and the “ke” value was “A (ke is more than or equal to 1.0)”. With `COc1ccc(NC(=O)c2ccc3nc(-c4cc(Cl)cc(Cl)c4)oc3c2)cn1` [Compound 51] the “ke” value was “A (ke is more than or equal to 1.0)”. `Cc1noc(-c2ccc(CSCCC(=O)NC3CC3)cc2)c1NC(=O)OC(C)c1ccccc1Cl` (stereo not shown) [Compound 33] was tested, and the “ke” value was “D (ke is 0)”. With `O=C(Nc1ccnnc1)c1ccc2nc(-c3cc(Cl)cc(Cl)c3)oc2c1` [Compound 50] the “ke” value was “A (ke is more than or equal to 1.0)”. `CCc1cc(/C(C)=N/OCc2ccc(C3CCCCC3)c(C(F)(F)F)c2)ccc1CN1CC(C(=O)NC)C1` [Compound 18] was tested, and the “ke” value was “B (ke is less than 1.0 and more than or equal to 0.1)”. `O=C(NC1CC1)c1ccc2nc(-c3cc(Cl)cc(Cl)c3)oc2c1` [Compound 15] was tested, and the “ke” value was “D (ke is 0)”. In the case of `CNC(=O)CCc1ccc(OCc2cc(Cl)cc3c2OC(C)(C)C3)c(C)c1C` [Compound 10, 3-(4-((5-chloro-2,2-dimethyl-2,3-dihydrobenzofuran-7-yl)methoxy)-2,3-dimethylphenyl)-N-methylpropanamide], the “ke” value is reported as “A (ke is more than or equal to 1.0)”. `Cc1c(C=CC(=O)Nc2ccncc2)ccc(OCc2cc(Cl)cc3c2OC(C)(C)C3)c1C` [Compound 7, 3-(4-((5-chloro-2,2-dimethyl-2,3-dihydrobenzofuran-7-yl)methoxy)-2,3-dimethylphenyl)-N-(pyridin-4-yl)propenamide] was tested, and the “ke” value was “A (ke is more than or equal to 1.0)”. In the case of `CCCCC[C@H](O)CC[C@@H]1[C@H]2Cc3cccc(OCC(=O)Nc4ccncc4)c3C[C@H]2C[C@H]1O` [Compound 55], the “ke” value is reported as “A (ke is more than or equal to 1.0)”. For `Cc1c(CCC(=O)NC2CC2)ccc(OCc2cc(Cl)cc3c2OC(C)(C)C3)c1C` [Compound 3, 3-(4-((5-chloro-2,2-dimethyl-2,3-dihydrobenzofuran-7-yl)methoxy)-2,3-dimethylphenyl)-N-cyclopropylpropanamide], the “ke” value was “B (ke is less than 1.0 and more than or equal to 0.1)”. `Cc1noc(-c2ccc(CSCCC(=O)Nc3ccncc3)cc2)c1NC(=O)OC(C)c1ccccc1Cl` (stereo not shown) [Compound 44] was tested, and the “ke” value was “B (ke is less than 1.0 and more than or equal to 0.1)”. In the case of `CNC(=O)c1ccc2nc(-c3cc(Cl)cc(Cl)c3)oc2c1` [Compound 16], the “ke” value is reported as “D (ke is 0)”. `Cc1noc(-c2ccc(NC(=O)CCC(=O)NCCCF)cc2F)c1NC(=O)O[C@H](C)c1ccccc1Cl` [Compound 30] was tested, and the “ke” value was “B (ke is less than 1.0 and more than or equal to 0.1)”. `O=C(Nc1ccncc1)c1ccc2nc(-c3cc(Cl)cc(Cl)c3)oc2c1` [Compound 57] was tested, and the “ke” value was “D (ke is 0)”. For `CCc1cc(/C(C)=N/OCc2ccc(C3CCCCC3)c(C(F)(F)F)c2)ccc1CN1CC(C(=O)Nc2ccncc2)C1` [Compound 38], the “ke” value was “A (ke is more than or equal to 1.0)”. In the case of `CCc1cc(/C(C)=N/OCc2ccc(C3CCCCC3)c(C(F)(F)F)c2)ccc1CN1CC(C(=O)NC2CC2F)C1` (stereo not shown) [Compound 28], the “ke” value is reported as “D (ke is 0)”. For `Cc1c(C=CC(=O)N[C@@H]2C[C@@H]2F)ccc(OCc2cc(Cl)cc3c2OC(C)(C)C3)c1C` [Compound 5, 3-(4-((5-chloro-2,2-dimethyl-2,3-dihydrobenzofuran-7-yl)methoxy)-2,3-dimethylphenyl)-N-((1R,2S)-2-fluorocyclopropyl)propenamide], the “ke” value was “B (ke is less than 1.0 and more than or equal to 0.1)”. `O=C(C[C@H]1CCc2c1[nH]c1ccc(OCc3ccc(C4CCCC4)c(C(F)(F)F)c3)cc21)Nc1ccncc1` [Compound 47] was tested, and the “ke” value was “D (ke is 0)”. `Cc1c(C=CC(=O)NCCCF)ccc(OCc2cc(Cl)cc3c2OC(C)(C)C3)c1C` [Compound 6, 3-(4-((5-chloro-2,2-dimethyl-2,3-dihydrobenzofuran-7-yl)methoxy)-2,3-dimethylphenyl)-N-(3-fluoropropyl)propenamide] was tested, and the “ke” value was “B (ke is less than 1.0 and more than or equal to 0.1)”. For `CNC(=O)C[C@H]1CCc2c1[nH]c1ccc(OCc3ccc(C4CCCC4)c(C(F)(F)F)c3)cc21` [Compound 21], the “ke” value was “D (ke is 0)”. In the case of `CCc1cc(/C(C)=N/OCc2ccc(C3CCCCC3)c(C(F)(F)F)c2)ccc1CN1CC(C(=O)NCCCF)C1` [Compound 39], the “ke” value is reported as “B (ke is less than 1.0 and more than or equal to 0.1)”. In the case of `Cc1n[nH]c(C)c1CCCOc1cc(C(N)=O)ccc1F` [Compound 36], the “ke” value is reported as “D (ke is 0)”. For `CCc1cc(/C(C)=N/OCc2ccc(C3CCCCC3)c(C(F)(F)F)c2)ccc1CN1CC(C(N)=O)C1` [Compound 19], the “ke” value was “D (ke is 0)”. For `Cc1noc(-c2ccc(NC(=O)CCC(=O)NC3CC3)cc2F)c1NC(=O)O[C@H](C)c1ccccc1Cl` [Compound 31], the “ke” value was “D (ke is 0)”. `CCCCC[C@H](O)CC[C@@H]1[C@H]2Cc3cccc(OCC(=O)NC4CC4)c3C[C@H]2C[C@H]1O` [Compound 12] was tested, and the “ke” value was “C (ke is less than 0.1 and more than 0)”. In the case of `Cc1noc(-c2ccc(CSCCC(=O)NCCCF)cc2)c1NC(=O)O[C@H](C)c1ccccc1Cl` [Compound 46], the “ke” value is reported as “C (ke is less than 0.1 and more than 0)”. In the case of `Cc1noc(-c2ccc(CSCCC(N)=O)cc2)c1NC(=O)O[C@H](C)c1ccccc1Cl` [Compound 24], the “ke” value is reported as “B (ke is less than 1.0 and more than or equal to 0.1)”. With `Cc1noc(-c2ccc(CSCCC(=O)N[C@H]3C[C@H]3F)cc2)c1NC(=O)OC(C)c1ccccc1Cl` (stereo partly shown) [Compound 45] the “ke” value was “C (ke is less than 0.1 and more than 0)”. With `CNC(=O)CCSCc1ccc(-c2onc(C)c2NC(=O)O[C@H](C)c2ccccc2Cl)cc1` [Compound 23] the “ke” value was “B (ke is less than 1.0 and more than or equal to 0.1)”. `Cc1c(C=CC(=O)N[C@@H]2C[C@H]2F)ccc(OCc2cc(Cl)cc3c2OC(C)(C)C3)c1C` [Compound 4, 3-(4-((5-chloro-2,2-dimethyl-2,3-dihydrobenzofuran-7-yl)methoxy)-2,3-dimethylphenyl)-N-((1R,2R)-2-fluorocyclopropyl)propenamide] was tested, and the “ke” value was “B (ke is less than 1.0 and more than or equal to 0.1)”.
